Measurements from publication PMC10249096, “Design, Synthesis, and Evaluation of a New Series of Hydrazones as Small-Molecule Akt Inhibitors for NSCLC Therapy” (ACS Omega, 2023).
Read-outs that look alike come from different tables or passages of the source.

Legend:
[1] = system: A549 cells; assay: Annexin V FITC/PI flow cytometric analysis of apoptosis; conditions: 24 h, each agent at its IC50 (3a 91.35, 3e 176.23, 3g 46.60, 3i 83.59, cisplatin 23.89 μM)
[2] = system: L929 mouse embryonic fibroblast cells; assay: MTT test, cytotoxicity on L929 cells; type: cell-based; conditions: mean ± SD, triplicate, read-out: IC50 L929 cell line
Experimental: (§1) A549 and L929 cell lines were purchased from American Type Culture Collection (Manassas, VA, USA). Cells were cultured, and drug treatments were performed as previously explained.[46]
(§2) MTT assay was conducted as previously described[47] with slight modifications.[48] Cisplatin was used as a positive control. The assay was performed in triplicate. Half-maximal inhibitory concentration (IC50) data (μM) were expressed as mean ± SD.

[3] = system: Akt; assay: Akt Colorimetric In-Cell ELISA, Akt inhibition in A549 cells; type: cell-based, human; conditions: 24 h; for IC50: A549 cell line, mean ± SD, triplicate, read-out: Akt inhibitory effect IC50
Experimental: The assay was performed in triplicate. IC50 data (μM) were expressed as mean ± SD.

[4] = system: A549 human lung adenocarcinoma cells; assay: MTT test, cytotoxicity on A549 cells; type: cell-based; conditions: triplicate, read-out: IC50 A549 cell line
Experimental: as §1, §2

SMILES	early apoptosis (%) [1] [%]	late apoptosis (%) [1] [%]	necrosis (%) [1] [%]	IC50 [2] [µM]	IC50 [3] [µM]	melting point [°C]	IC50 ([4]; Homo sapiens, A549, mean ± SD) [µM]	inhibitory effect on Akt (in words) ([3]; A549 cells, 11.65, 23.30 and 46.60 μM)	Akt inhibition ([3]; A549 cells, at 91.35 μM) [%]	IC50 ([4]; mean ± SD) [µM]
O=C(CSc1nc2cc(Cl)ccc2o1)NN=Cc1ccc(-n2ccnc2)cc1 [Compound 3i, N′-[4-(1H-Imidazol-1-yl)benzylidene]-2-[(5-chlorobenzoxazol-2-yl)thio]acetohydrazide]	2.70	6.04	3.51	> 500	69.5 ± 1.48	229 to 231	83.6 ± 7.3	–	–	–
O=C(CSc1nc2cc(Cl)ccc2o1)NN=Cc1ccc(N2CCCCC2)cc1 [Compound 3e, N′-[4-(Piperidin-1-yl)benzylidene]-2-[(5-chlorobenzoxazol-2-yl)thio]acetohydrazide]	3.26	1.76	3.79	> 500	106 ± 53.7	–	176 ± 56.5	–	–	–
CN1CCN(c2ccc(C=NNC(=O)CSc3nc4cc(Cl)ccc4o3)cc2)CC1 [Compound 3g, N′-[4-(4-Methylpiperazin-1-yl)benzylidene]-2-[(5-chlorobenzoxazol-2-yl)thio]acetohydrazide]	7.13	12.17	0.78	277 ± 28.9	–	178 to 179	46.6 ± 6.15	did not exert any inhibitory effect	–	–
O=C(CSc1nc2cc(Cl)ccc2o1)NN=Cc1ccc(N2CCOCC2)cc1 [Compound 3f, N′-[4-(Morpholin-4-yl)benzylidene]-2-[(5-chlorobenzoxazol-2-yl)thio]acetohydrazide]	–	–	–	> 500	–	209 to 210	251 ± 45.9	–	–	–
O=C(CSc1nc2cc(Cl)ccc2o1)NN=Cc1ccc(N(CCCl)CCCl)cc1 [Compound 3c, N′-[4-(Bis(2-chloroethyl)amino)benzylidene]-2-[(5-chlorobenzoxazol-2-yl)thio]acetohydrazide]	–	–	–	> 500	–	155 to 156	> 500	–	–	–
CN(C)c1ccc(C=NNC(=O)CSc2nc3cc(Cl)ccc3o2)cc1 [Compound 3a, N′-(4-Dimethylaminobenzylidene)-2-[(5-chlorobenzoxazol-2-yl)thio]acetohydrazide]	11.22	4.97	0.79	> 500	–	197 to 199	91.4 ± 21.9	–	35.40 ± 13.36	–
CCn1c(-c2nonc2N)nc2c(C#CC(C)(C)O)ncc(OC[C@H]3CCCNC3)c21 [GSK690693, reference compound]	–	–	–	–	5.93 ± 1.2	–	–	–	–	–
NNC(=O)CSc1nc2cc(Cl)ccc2o1 [Compound 2, 2-[(5-Chlorobenzoxazol-2-yl)thio]acetohydrazide]	–	–	–	> 500	–	159 to 161	> 500	–	–	–
N.N.[Cl][Pt][Cl] [Cisplatin, reference compound]	3.61	3.14	0.98	–	8.09 ± 0.63	–	–	–	–	23.9 ± 2.71
O=C(CSc1nc2cc(Cl)ccc2o1)NN=Cc1ccc(-n2cncn2)cc1 [Compound 3j, N′-[4-(1H-1,2,4-Triazol-1-yl)benzylidene]-2-[(5-chlorobenzoxazol-2-yl)thio]acetohydrazide]	–	–	–	> 500	–	256 to 257	> 500	–	–	–
O=C(CSc1nc2cc(Cl)ccc2o1)NN=Cc1ccc([N+](=O)[O-])cc1 [Compound 3d, N′-(4-Nitrobenzylidene)-2-[(5-chlorobenzoxazol-2-yl)thio]acetohydrazide]	–	–	–	> 500	–	237 to 239	> 500	–	–	–
CCN(CC)c1ccc(C=NNC(=O)CSc2nc3cc(Cl)ccc3o2)cc1 [Compound 3b, N′-(4-Diethylaminobenzylidene)-2-[(5-chlorobenzoxazol-2-yl)thio]acetohydrazide]	–	–	–	> 500	–	172 to 173	410 ± 220	–	–	–
O=C(CSc1nc2cc(Cl)ccc2o1)NN=Cc1ccc(N2CCCC2)cc1 [Compound 3h, N′-[4-(Pyrrolidin-1-yl)benzylidene]-2-[(5-chlorobenzoxazol-2-yl)thio]acetohydrazide]	–	–	–	> 500	–	206 to 207	> 500	–	–	–
